The text below walks through data of patent US9974766B2, “Prenylated isoflavones for treatment of subjects with multidrug-resistant cancer” (Macau University of Science and Technology, priority 2015, dated 2018).

“Also recorded” adds a separate entry of the source. Bounds are passed on as bounds.

In data set [1] the test system is A549 (Lung) (Taxol resistant). Briefly: MTT cytotoxicity assay, A549 Taxol resistant. To be noted: for IC50: Homo sapiens, A549, 72 h, MTT, 3 days; for Resistant Factor: IC50 in Taxol resistant A549 divided by IC50 in Taxol sensitive A549. Format: cell-based, human. Here is the method: (§1) Cell cultures and cytotoxicity assays have been carried out. […] Subsequently, 10 μL of MTT reagents is added to each well and incubated at 37° C. for 4 hours followed by the addition of 100 μL solubilization buffer (10% SDS in 0.01 mol/L HCl) and overnight incubation. Absorbance at 585 nm is determined from each well the next day. The percentage of cell viability is calculated using the following formula: Cell viability (%)=Cells number treated/Cells number DMSO control×100. Data are obtained from three independent experiments. The resistant factor is calculated by dividing the IC50 in resistant cells by its IC50 against drug-sensitive cells.

Data set [2] has as its system HCT-8 (Colon) (Taxol resistant). Briefly: MTT cytotoxicity assay, HCT-8 Taxol resistant. The format is cell-based, human. To be noted: for IC50: Homo sapiens, HCT-8, 72 h, MTT, 3 days; for Resistant Factor: IC50 in Taxol resistant HCT-8 divided by IC50 in Taxol sensitive HCT-8. On the procedure:
as §1

The test system of data set [3] is HCT-8 (Colon) (Taxol sensitive). The experiment in a line: MTT cytotoxicity assay, HCT-8 Taxol sensitive. Format: cell-based. To be noted: Homo sapiens, HCT-8, 72 h, 3 days. Here is the method:
as §1

Data set [4] has as its system A549 (Lung) (Taxol sensitive). Briefly: MTT cytotoxicity assay, A549 Taxol sensitive. Format: cell-based. To be noted: Homo sapiens, A549, 72 h, 3 days. On the procedure:
as §1

Data set [5] relates to MCF-7 (Breast) (Taxol sensitive). The experiment in a line: MTT cytotoxicity assay, MCF-7 Taxol sensitive. Format: cell-based. To be noted: Homo sapiens, MCF7, 72 h, 3 days. On the procedure: as §1
For data set [6], the system named is MCF-7 (Breast) (Taxol resistant). Briefly: MTT cytotoxicity assay, MCF-7 Taxol resistant. To be noted: for IC50: Homo sapiens, MCF7, 72 h, MTT, 3 days; for Resistant Factor: IC50 in Taxol resistant MCF-7 divided by IC50 in Taxol sensitive MCF-7. Format: cell-based, human. Here is the method: as §1
For data set [7], the system named is MCF-7 (Breast) (Dox resistant). The experiment in a line: MTT cytotoxicity assay, MCF-7 Dox resistant. The format is cell-based, human. To be noted: for IC50: Homo sapiens, MCF7, 72 h, MTT, 3 days; for Resistant Factor: IC50 in Dox resistant MCF-7 divided by IC50 in Dox sensitive MCF-7. On the procedure:
as §1

Data set [8] deals with MCF-7 (Breast) (Dox sensitive). The experiment in a line: MTT cytotoxicity assay, MCF-7 Dox sensitive. The format is cell-based. To be noted: Homo sapiens, MCF7, 72 h, 3 days. Here is the method: as §1
The target of data set [9] is P-glycoprotein (Homo sapiens, UniProt P08183). The experiment in a line: Rho123 efflux assay in A549 taxol-resistant lung cancer cells. To be noted: Example 8, 10 μM of each compound, 24 h, then Rho123 1 h.
P-glycoprotein (Homo sapiens, UniProt P08183), sequence (P08183 whole entry): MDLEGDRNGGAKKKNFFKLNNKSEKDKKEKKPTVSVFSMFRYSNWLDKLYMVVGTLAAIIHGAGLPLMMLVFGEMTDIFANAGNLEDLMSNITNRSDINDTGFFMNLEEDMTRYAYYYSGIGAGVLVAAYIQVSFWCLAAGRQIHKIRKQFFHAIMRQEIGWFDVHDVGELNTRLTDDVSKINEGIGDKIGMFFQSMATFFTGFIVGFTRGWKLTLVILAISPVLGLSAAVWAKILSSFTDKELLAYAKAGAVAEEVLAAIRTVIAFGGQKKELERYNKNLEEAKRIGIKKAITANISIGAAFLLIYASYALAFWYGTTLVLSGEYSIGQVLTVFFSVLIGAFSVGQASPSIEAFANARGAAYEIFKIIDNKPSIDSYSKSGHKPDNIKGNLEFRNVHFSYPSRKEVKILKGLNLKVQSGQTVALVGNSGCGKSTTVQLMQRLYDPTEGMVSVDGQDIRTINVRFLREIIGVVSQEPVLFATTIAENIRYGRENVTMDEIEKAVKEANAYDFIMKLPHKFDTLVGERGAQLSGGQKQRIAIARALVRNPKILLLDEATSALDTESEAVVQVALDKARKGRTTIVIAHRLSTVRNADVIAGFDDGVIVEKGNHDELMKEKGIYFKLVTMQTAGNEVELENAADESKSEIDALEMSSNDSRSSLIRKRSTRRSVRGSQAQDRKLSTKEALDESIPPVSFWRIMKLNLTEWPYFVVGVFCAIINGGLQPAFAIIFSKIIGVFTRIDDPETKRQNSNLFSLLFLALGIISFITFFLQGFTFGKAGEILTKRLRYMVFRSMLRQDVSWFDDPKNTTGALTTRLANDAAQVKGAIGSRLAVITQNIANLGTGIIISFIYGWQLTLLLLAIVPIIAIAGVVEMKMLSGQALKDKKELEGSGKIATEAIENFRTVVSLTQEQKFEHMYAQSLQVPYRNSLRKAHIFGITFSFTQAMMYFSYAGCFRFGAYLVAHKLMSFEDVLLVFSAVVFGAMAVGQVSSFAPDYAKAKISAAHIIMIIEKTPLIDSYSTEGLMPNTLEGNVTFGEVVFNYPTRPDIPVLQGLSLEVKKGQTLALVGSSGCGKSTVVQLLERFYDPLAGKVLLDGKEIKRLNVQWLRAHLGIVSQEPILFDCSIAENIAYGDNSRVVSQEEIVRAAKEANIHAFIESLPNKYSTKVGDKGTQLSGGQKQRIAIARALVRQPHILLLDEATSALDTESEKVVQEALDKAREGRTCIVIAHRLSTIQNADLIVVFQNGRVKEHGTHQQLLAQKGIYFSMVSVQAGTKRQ
Data set [10] relates to P-glycoprotein. Briefly: Rho123 efflux assay in MCF-7 taxol/doxorubicin-sensitive breast cancer cells. To be noted: MCF-7 drug-sensitive cells without P-glycoprotein expression; pomiferin 5-20 μM or verapamil 10 μM, 24 h, then Rho123 1 h.
Data set [11] concerns A549 taxol-resistant lung cancer cells. Briefly: Annexin V/propidium iodide flow cytometry of cell death, A549 taxol-resistant. Format: cell-based, human. To be noted: 1-10 μM pomiferin with 40 μM taxol, 24 h.
Description: (§2) Cell death and viability are measured using an Annexin V staining kit (BD Biosciences, San Jose, Calif., USA). […] Cells were then harvested and analysed by multiparametric flow cytometry using FITC-Annexin V and propidium iodide staining (BD Biosciences, San Jose, Calif., USA) according to the manufacturer's instructions. Flow cytometry has been then carried out using a FACSCalibur flow cytometer (BD Biosciences, San Jose, Calif., USA). […] Data were obtained from three independent experiments.
For data set [12], the system named is HCT-8 taxol-resistant colon cancer cells. The experiment in a line: Annexin V/propidium iodide flow cytometry of cell death, HCT-8 taxol-resistant. Format: cell-based, human. To be noted: 1-10 μM pomiferin with 40 μM taxol, 24 h.
Description: as §2

Consider `CC(=O)O[C@H]1C(=O)[C@@]2(C)[C@H]([C@H](OC(=O)c3ccccc3)[C@]3(O)C[C@H](OC(=O)[C@H](O)[C@@H](NC(=O)c4ccccc4)c4ccccc4)C(C)=C1C3(C)C)[C@]1(OC(C)=O)CO[C@@H]1C[C@@H]2O` [Taxol, paclitaxel, reference compound], for which the IC50 was 31.3 µM in data set [1]; 35.3 µM in data set [2]; < 0.001 µM in [3]; 0.0309 µM in data set [4]; < 0.001 µM in [5]; 5 µM in data set [6]. Also, the “Resistant Factor” value in data set [1] is listed as 1012.945×; in data set [1] (listed as taxol), 1000 ×; in [2], >35300×; in [2] (listed as taxol), 35300 ×; in [6], 5000×; in data set [6] (listed as taxol), “over 5000 ×”.

With `COc1cccc2c1C(=O)c1c(O)c3c(c(O)c1C2=O)C[C@@](O)(C(=O)CO)C[C@@H]3O[C@H]1C[C@H](N)[C@H](O)[C@H](C)O1` [doxorubicin, reference compound], the half-maximal inhibitory concentration (IC50) in data set [7] was 10 µg/mL; in [8] it was 0.463 µg/mL. Besides, the “Resistant Factor” value in data set [7] came out at 21.6 ×.

For `CC1(C)C=Cc2c(c3c(c4c(=O)c(-c5ccc(O)cc5)coc24)OC(C)(C)CC3)O1` [isoosajin, 3,4-dihydro-11-(4-hydroxyphenyl)-2,2,6,6-tetramethyl-2H,6H,12H-benzo[1,2-b:3,4-b′:5,6-b″]tripyran-12-one], the “P-glycoprotein inhibition (Rho123 accumulation)” value (from here on “P-glycoprotein inhibition”) on P-glycoprotein [9] is recorded as “showed P-glycoprotein inhibition with a different extent; also recorded: comparable effect compared to pomiferin”.

On to `CC1(C)C=Cc2c(c3c(c4c(=O)c(-c5ccc(O)c(O)c5)coc24)OC(C)(C)CC3)O1` [isopomiferin, 7,8-dihydro-3-(3,4-dihydroxyphenyl)-6,6,10,10-tetramethyl-4H,6H,10H-benzo[1,2-b:3,4-b′:5,6-b″]tripyran-4-one], for which the “P-glycoprotein inhibition” value on P-glycoprotein [9] is “showed P-glycoprotein inhibition with a different extent; also recorded: comparable effect compared to pomiferin”.

As to `COc1ccc(-c2coc3c4c(c(CC=C(C)C)c(O)c3c2=O)OC(C)(C)C=C4)cc1` [osajin 4′-methyl ether], the “P-glycoprotein inhibition” value at P-glycoprotein [9] is “showed P-glycoprotein inhibition with a different extent”.

In the case of `COc1ccc(C2COc3c4c(c(CC=C(C)C)c(OC)c3C2=O)OC(C)(C)C=C4)cc1OC` (stereo not shown) [pomiferin trimethyl ether], the “P-glycoprotein inhibition” value at P-glycoprotein [9] is listed as “showed P-glycoprotein inhibition with a different extent”.

Turning to `CC(C)=CCc1c2c(c3occ(-c4ccc(O)c(O)c4)c(=O)c3c1O)C=CC(C)(C)O2` [pomiferin, 3-(3,4-dihydroxyphenyl)-5-hydroxy-8,8-dimethyl-6-(3-methylbut-2-enyl)pyrano[2,3-h] chromen-4-one], in the data set with P-glycoprotein [10], the “Rho123 fluorescence signal / accumulation in cells” value is “no difference in fluorescence signal compared with Rho123 stained cells”. For the same compound, the “effect on taxol-mediated cytotoxicity (cell death)” value is “significantly enhanced the taxol-mediated cytotoxicity” in data set [11] and “enhanced taxol-mediated cytotoxicity” in data set [12]. The IC50 worked out at 17.2 µM in data set [1]; 15.2 µM in data set [7]; 35.9 µM in [8]; 17.6 µM in data set [2]; 25.5 µM in [3]; 18.2 µM in data set [4]. In addition, the half-maximal inhibitory concentration (IC50) in data set [5] stood at 35.7 µM; in [6], 27.1 µM. Besides, the “Resistant Factor” value in data set [1] is listed as 0.95 ×; in data set [1] (listed as Pomiferin) it was 0.95×; in [7], 0.42 ×; in [2] it was 0.69 ×; in data set [2] (listed as Pomiferin) it was 0.69×; in data set [6] it was 0.76 ×. In data set [6] (listed as Pomiferin), the “Resistant Factor” value came to 0.76×.
